Numbered stars: 1 amine (or outer) side, 2 acyl side, 3 side chain; on linkers, the order of the positions; unused ones are H or OH. Bridge positions count the residues as written; N and C are the ends. Square brackets hold non-standard residues; d marks the D form. Peptide text beside a SMILES is read from it. Pen = CC(C)(S)[C@H](N)C(=O)O; X1 = O=C(CCC[*:2])[*:1]

The assay has as its system conscious normotensive rat. Nature of the assay: Diuretic assay in the conscious normotensive rat. To be noted: for URINE VOLUME: 0.5 μg/kg/min infusion via femoral vein, ratio of treated over control, volume in 10 minute sample (average of three consecutive samples); for ELECTROLYTE EXCRETION K^+ / ELECTROLYTE EXCRETION Na^+: 0.5 μg/kg/min infusion, treated minus controls, average of three samples. In kind it is in vivo. The source says: More explicitly, normotensive male rats (300-325 g) were anesthetized with halothane. Following an application of lidocaine 2% solution, the femoral artery was cannulated for measurements of blood pressure and heart rate, and the femoral vein was cannulated for the administration of the test compounds. The bladder was also cannulated to measure urine flow. After surgery was completed, the animals were placed in restraining cages and allowed to recover from anesthesia for a period of one hour. A Ringer's solution infusion was started at a rate of 1.2 ml per hour. Three control urine samples were collected at 10 minute intervals. The test compound was then infused at a rate varying from 0.5 to 3 μg/kg/min over 30 minutes. Three test samples of urine were collected at 10 minute intervals during the compound infusion. After the test compound had been infused for 30 minutes and 3 more urine samples were collected. The volume of each urine sample was determined and the electrolyte concentration was measured using a biomedical electrolyte analyser. The animals served as their own controls. The systolic and diastolic blood pressures and the heart rate were determined during each urine collection period.

On to `CC[C@H](C)[C@@H]1NC(=O)[C@H](CCCNC(=N)N)NC(=O)[C@H](CC(=O)O)NC(=O)[C@H]([C@@H](C)CC)NC(=O)[C@H](CCCNC(=N)N)NC(=O)CNC(=O)CNC(=O)[C@H](Cc2ccccc2)NC(=O)CCCSC(C)(C)[C@@H](C(=O)N[C@@H](CC(N)=O)C(=O)N[C@@H](CO)C(=O)N[C@@H](Cc2ccccc2)C(=O)N[C@@H](CCCNC(=N)N)C(=O)N[C@@H](Cc2ccc(O)cc2)C(=O)O)NC(=O)CNC(=O)[C@H](CC(C)C)NC(=O)CNC(=O)[C@H](CO)NC(=O)[C@H](CCC(N)=O)NC(=O)[C@H](C)NC(=O)CNC1=O` [rat[(CH2 CH2 CH2 CO)^105, Pen^121]-ANF(105-126)] (FGGRIDRIGAQSGLG[Pen]NSFRY-OH; linker N-16 via X1), for which the “URINE VOLUME” value amounted to 3.0, the “ELECTROLYTE EXCRETION K^+” value was determined as 24.8 and the “ELECTROLYTE EXCRETION Na^+” value is given as 17.9.
Regarding “rat [(CH2 -CH2 CH2 CO)^105]ANF-(105-126) [rat[(CH2 CH2 CH2 CO)^105]-ANF(105-126)]”, the “URINE VOLUME” value worked out at 2.8, the “ELECTROLYTE EXCRETION K^+” value is 10.2 and the “ELECTROLYTE EXCRETION Na^+” value is given as 34.0.

The values above are taken from patent US4891358A, “ANE derivatives with novel bridging” (Bio-Mega Inc., priority 1987, dated 1990).
